This is an account of results in patent US12195455B2, “Succinate and fumarate acid addition salts of piperazine derivatives” (Asceneuron SA, priority 2018, dated 2025).

The procedure of this data set:
The free base Example 35 (10 mg) was weighed into glass vials and water was added in 100 μL portions up to 1 mL then 0.5 mL portions thereafter. Solubility was assessed visually following a brief period of equilibration.

As for `C[C@@H](c1ccc2scnc2c1)N1CCN(c2ncc([S@@](C)(=N)=O)cn2)CC1` (single isomer, unassigned) [Example 35], the visual aqueous solubility is less than 1250 µg/mL.
